“Also recorded” adds a separate entry of the source.
Legend:
MDA-MB-231 = test: XTT viability after timed exposure and strigolactone removal; format: cell-based, human; conditions: 5 and 10 ppm, XTT at 24 hours
Description: As further detailed herein below in the Experimental section, strigolactones and strigolactone analogs inhibit growth through a G2-phase arrest and cause apoptosis at higher concentrations wherein the GR-24 treatment causes an increase in the percentage of MCF-7 and MDA-MB-231 cells in G2-phase. Cells were treated with strigolactone analogs to determine whether or not they alter cell cycle progression in the same way. Dose dependant increases in the percentage of cells in G2 phase were observed. […] After a total of 24 hours, an XTT assay was carried out.

MCF-7 mammospheres [1] = test: cells; format: cell-based, human; conditions: for Mammosphere morphology: 2.5-5 ppm, after 48 hours; for Mammosphere numbers (>100 μM), percentage of vehicle treated control: 5 days; for viability at 5 ppm: Homo sapiens, MCF7, read-out: XTT viability of dissociated mammospheres
Description: (§1) Given the similar effects the other strigolactone analogs had on breast cancer cell line growth compared to GR-24, we anticipated that the strigolactone analogs would also have similar effects on MCF-7 primary mammosphere formation (FIG. 10): MCF-7 cells were seeded in MEBM media into low attachment, 96 well plates in duplicate at 3000 cells per well. The same day the indicated doses of strigolactone analogs were added. After 7 days representative images were taken. […] Like GR-24, the doses required to inhibit mammosphere formation are lower than that required to inhibit proliferation in monolayer cultures (5 fold lower; ST-362 and MEB-55, 3 fold lower; ST-357). To determine if the sensitivity to strigolactone analogs treatments was specific to mammosphere formation or whether it extended to the integrity and survival of mature mammospheres, MCF-7 mammospheres were grown in the absence of strigolactone analogs and after 7 days (or once mammospheres had reached a mean diameter of over […]), strigolactone analogs were added to the growth media (FIG. 10) at the indicated doses. MCF-7 cells were seeded in MEBM media into low attachment, 96 well plates in duplicate at 3000 cells per well and primary mammospheres left to grow for 7 days. At which time the indicated doses of strigolactone analogs were added to the media. FIG. 11A is a representative image of mammospheres treated with 5 ppm concentrations, showing dissociation after 2 days of exposure to strigolactone analogs. […] Following […] treatment, mammospheres were monitored visually after 24 and 48 hours. No changes were observed following 24 hours of strigolactone analogs treatment. […] At 5 ppm concentrations EG-5, EG-9C, ST-357, ST-362 and MEB-55 reduce mammosphere numbers from 86.7+6.8 (vehicle control) to 23+5, 38+6.2, 6+2, 8.3+3.5 and 9.3+1.5%, respectively. At 2.5 ppm concentrations, mammosphere numbers were reduced to 35+6.9 (EG-5), 52+12.3 (EG-9C), 22+8.5 (ST-357), 6+1.7 (ST-362) and 20.7+8.6 (MEB-55). […] XTT viability assays were also carried out on dissociated mammospheres. At concentrations of 5 ppm, EG-5, ST-362 and MEB-55 reduced viability to 3.7+0.5, 25.5+8.8 and 4.6+1.1% respectively.

U20S cells = test: XTT viability after timed exposure and strigolactone removal; conditions: Homo sapiens
Description: (§3) At each time point the strigolactone analog was removed and the media was replaced with fresh growth media without strigolactone analog. […] In addition, viability of MDA-MB-231 cells was assessed after 24 hours by using an XTT assay (FIG. 9B). […] After 2, 4 or 24 hours the media was removed, cells were washed and media was replaced with growth media minus strigolactone analog.

MDA-MB-436 = test: XTT viability assay; format: cell-based, human; conditions: MDA-MB-436, 3 days
Description: (§2) Viability was assayed after 3 days (XTT, ATCC). IC50 concentrations are indicated (Table 3 above).

A549 = test: XTT viability assay; format: cell-based, human; conditions: A549, 3 days
Description: as §2

MCF-7 mammospheres [2] = test: Mammosphere formation; format: cell-based, human; conditions: for Dose to block/inhibit mammosphere formation, fold lower than for monolayer growth: MCF-7
Description: Adherent cells were gently trypsinized, (0.05% trypsin/EDTA) washed twice in PBS and filtered through a […] cell sieve to obtain a single cell suspensions. Cells were diluted to a concentration of 10,000 cell/ml in serum-free phenol-red free MEBM (MEGM Bulletkit, Lonza) supplemented with 5 μg/ml bovine insulin, 20 ng/ml recombinant epidermal growth factor, 20 ng/ml basic fibroblast growth factor (Gibco), 1×B27 supplement, 0.5 μg/ml hydrocortisone (MEGM Bulletkit, Lonza). For MDA-MB-231 mammosphere cultures serum-free phenol red-free CnT-27 medium with growth additives (CellnTEC Advanced cell systems, Bern, Switzerland) was used as previously described. 0.1 ml was seeded per well of a Ultralow attachment 96 well plates. The following day the indicated doses of GR-24 (ppm) or vehicle alone (0.6% acetone f/c) were added. Media was replenished every 3-4 days. Self-renewal capacity of the mammospheres was determined by re-plating and producing further generations of mammospheres. Secondary mammospheres were cultivated by dissociation (trypsinization with gently vortexing) of 10-14 day old primary mammospheres. Single cell suspensions were obtained as described above.
as §1

HCT116 cells = test: XTT viability after timed exposure and strigolactone removal; conditions: Homo sapiens
Description: as §3

[3] = system: MDA-MB-231 breast cancer cells; test: Xenograft tumor model; format: in vivo; conditions: SCID mice, 10 mg/kg iv twice a week, 4 treatments; for Mean tumor volume: control 24.2±5.57; for Tumor growth: p<0.0015
Description: To establish subcutaneous tumors, actively growing MDA-MB-231 breast cancer cells were harvested and 1.5×10^6 cells in 100 μl PBS were injected into the mammary fat pads of mice (n=15). The lesions were allowed to grow until their average sizes were approximately 4.5 mm×4.5 mm (about 3 weeks). The mice were then randomized into 3 groups for various treatments including vehicle control, and two strigolactone analogs: ST-362 and ST-357. Treatment started at day 1, 10 ppm (10 mg/Kg) twice a week for a total of 4 treatments. ST-362 and ST-357 were administered intravenously (iv). Body weight and tumor measurements were recorded twice weekly. Tumor cross-sectional area was calculated by multiplying the length×width and tumor volume was calculated by cubing the mean value of length and width. Results are summarized and plotted.
Data are expressed as mean±SD. Statistical significance was assessed by one-way ANOVA and Games-Howell Post Hoc test. A value of P<0.05 was considered significant and represents significance compared with untreated controls, unless indicated otherwise. Data was analyzed by Graphpad PRISMS and SPSS.

[4] = 5 ppm, vehicle control 86.7+6.8

Row | IC50 at 72 h (MDA-MB-436) [ppm] | IC50 at 72 h (A549) [ppm] | SMILES | Cell viability (MDA-MB-231; 2 hours exposure) | Cell viability (MDA-MB-231; 4 hours exposure, p<0.01) | Mammosphere morphology (MCF-7 mammospheres [1]) | Mammosphere numbers (>100 μM), percentage of vehicle treated control (MCF-7 mammospheres [1]; 2.5 ppm) | Mammosphere numbers (>100 μM), percentage of vehicle treated control (MCF-7 mammospheres [1]; [4]) | viability at 5 ppm (MCF-7 mammospheres [1]) [%] | viability at 10 ppm (U20S cells; 1 h) [%] | viability at 20 ppm (U20S cells; 1 h) [%] | viability at 10 ppm (U20S cells; 4 h) [%] | viability at 20 ppm (U20S cells; 4 h) [%] | Mammosphere formation (MCF-7 mammospheres [2]; 1 ppm, p<0.01) | Mammosphere growth (MCF-7 mammospheres [2]; 2.5 ppm) | Mammosphere formation (MCF-7 mammospheres [2]; 5 ppm and above) | Dose to block/inhibit mammosphere formation, fold lower than for monolayer growth (MCF-7 mammospheres [2]) [fold] | viability at 10 ppm (HCT116 cells; HCT-116, 1 h) [%] | viability at 20 ppm (HCT116 cells; HCT-116, 1 h) [%] | viability at 20 ppm (HCT116 cells; HCT-116, 4 h) [%] | Mean tumor volume [3] [mm^3] | further results
1 | 8.3 | 6.9 | CC1=CC(O/C=C2\Cc3c(n(C)c4cc(-c5cccs5)ccc34)C2=O)OC1=O (racemic) [MEB-55, (±) 2E-4-methyl-2-(4-methyl-5-oxo-2,5-dihydrofuran-2-yloxymethylene)-6-thiophen-2-yl-1,4-dihydro-2H-cyclopenta[b]indol-3-one] | No significant changes; also recorded: No changes in cell viability | significant decrease in viability | exhibited a looser morphology and appeared to be dissociating | 20.7 ± 8.6% | 9.3+1.5% | 4.6 | 52 | 40 | 0 | 0 | significantly inhibit mammosphere formation | block mammosphere growth | completely block mammosphere formation | 5 | 75 | 68 | 0 | – | viability at 10 ppm (HCT116 cells; HCT-116, 4 h): 18%
2 | 5.9 | 6.7 | CC1=CC(O/C=C2/C(=O)c3c(c4cc(-c5scc6c5OCCO6)ccc4n3C)C2C)OC1=O (stereo not drawn) [ST-362, (2E)-2-[(2,5-dihydro-4-methyl-5-oxofuran-2-yloxy)methylene]-1,2-dihydro-7-(2,3-dihydrothieno[3,4-b][1,4]dioxin-7-yl)-1,4-dimethyl-cyclopenta[b]indole-3-(4H)-one] | No significant changes; also recorded: No changes in cell viability | significant decrease in viability | exhibited a looser morphology and appeared to be dissociating | 6+1.7% | 8.3+3.5% | – | – | – | – | – | significantly inhibit mammosphere formation | block mammosphere growth | completely block mammosphere formation | 5 | – | – | – | 17.7±4.28 | Tumor growth [3]: effective in inhibiting tumor growth
3 | – | – | CC1=C[C@H](O/C=C2/C(=O)O[C@@H]3c4ccccc4C[C@H]23)OC1=O (relative stereo) [GR-24, (3aR*,8bS*,E)-3-(((R*)-4-methyl-5-oxo-2,5-dihydrofuran-2-yloxy)methylene)-3,3a,4,8b-tetrahydro-2H-indeno[1,2-b]furan-2-one] | – | – | – | – | – | – | – | – | – | – | severely attenuated | – | – | 5.7 | – | – | – | – | Mammosphere growth (MCF-7 mammospheres [2]; 0.5 ppm, p<0.05): inhibited to a lesser degree
4 | – | – | CC1=CC(O/C=C2/C(=O)c3c(c4cc(-c5cccs5)ccc4n3C)C2C)OC1=O (stereo not drawn) [ST-357, (2E)-1,4-dimethyl-2-((4-methyl-5-oxo-2,5-dihydrofuran-2-yloxy)methylene)-7-(thiophen-2-yl)-1,2-dihydrocyclopenta[b]indol-3(4H)-one] | – | – | exhibited a looser morphology and appeared to be dissociating | 22+8.5% | 6+2% | – | 80 | 77 | 62 | 10 | significantly inhibit mammosphere formation | significant reduction in mammosphere growth | completely block mammosphere formation | 3 | 75 | 63 | 50 | 15.9±2.61 | Tumor growth [3]: effective in inhibiting tumor growth; viability at 20 ppm (HCT116 cells; HCT-116, 8 h): 10%
5 | – | – | CC1=CC(O/C=C2\Cc3c(n(C)c4ccccc34)C2=O)OC1=O (racemic) [EG-5, (±) (2E)-4-methyl-2-(4-methyl-5-oxo-2,5-dihydrofuran-2-yloxymethylene)-1,4-dihydro-2H-cyclopenta[b]indol-3-one] | – | – | – | 35+6.9% | 23+5% | 3.7 | – | – | – | – | – | – | completely block mammosphere formation | – | – | – | – | – | –

— patent publication US10208007B2, “Use of strigolactones and strigolactone analogs for treating proliferative conditions” (The State of Israel, Ministry of Agriculture & Rural …, priority 2011, dated 2019)
